Experimental data taken from patent publication EP4810494A1, “HPK1 DEGRADATION AGENT AND USE THEREOF IN FIELD OF MEDICINE” (Haisco Pharmaceutical Group Co., Ltd., priority 2023, dated 2025).
Counter-ions that a name gives are not always drawn. Like-named read-outs stand apart in the source and are kept apart here.

Legend:
HPK1 kinase = target: T1, HPK1 kinase (Homo sapiens, UniProt Q92918); assay: HPK1 kinase assay (1 mM ATP); assay type: biochemical
T1 construct: purchased Carna 07-410
T1 sequence (Q92918 1-346 limits assumed): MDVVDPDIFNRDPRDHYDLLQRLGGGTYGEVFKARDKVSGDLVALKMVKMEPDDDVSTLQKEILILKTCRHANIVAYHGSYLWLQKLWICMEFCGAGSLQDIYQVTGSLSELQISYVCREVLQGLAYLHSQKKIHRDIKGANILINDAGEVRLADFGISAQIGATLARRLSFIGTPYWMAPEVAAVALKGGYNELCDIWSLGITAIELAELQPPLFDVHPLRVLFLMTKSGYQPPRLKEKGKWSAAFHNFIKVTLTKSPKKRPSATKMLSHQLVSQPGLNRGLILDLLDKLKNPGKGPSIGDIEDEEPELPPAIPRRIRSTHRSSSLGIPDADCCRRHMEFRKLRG
Experimental: Test example 5: HPK1 kinase assay (1 mM ATP)
The kinase HPK1 (Carna, Cat.No 07-410) was prepared into 2× kinase solution using 1× kinase buffer. The substrate Fluorescein-PKC (Invitrogen, Cat. No. PV3506) and ATP (working concentration: 1 mM) (Sigma, Cat. No. 2383-5G) were prepared into 2× substrate solution using 1×kinase buffer. The detection reagent was diluted to 2-fold the final concentration using an antibody diluent. 100 nL of compounds at different concentrations and 5 µL of kinase solution were added to each well of a 384-well plate, and the mixture was incubated at room temperature for 10 minutes. After the incubation was completed, 5 µL of substrate solution was added to each well, and the resulting mixture was reacted at room temperature for 90 minutes. After the reaction was completed, 10 µL of detection reagent was added to each well to terminate the reaction, and the mixture was incubated at room temperature for 60 minutes. Fluorescence readings were detected using an Envision instrument with excitation at 320 nm and emission at 520 nm and 495 nm. IC50 value was calculated using XLFit excel add-in version 5.4.0.8 software. The calculation formula of the inhibition rate was shown in formula 5-1, wherein max is the Ratio of the DMSO control, min is the Ratio of the negative control without enzyme, and sample is the Ratio of the compound. Ratio = RFU520nm /RFU495nm [formula] Inhibition% = (max−sample)/(max−min) × 100% [formula] Table 5-1 Inhibitory activity of test compounds against HPK1 kinase

[1] = test system: IL-2 secretion by T cells; assay: IL-2 detection assay in cells (ELISA, pan-T cells isolated from PBMCs); assay type: cell-based; conditions: IL-2, CD3 antibody-coated plate, 24 hours; for Maximum activation fold: maximum activation rate/control group
Experimental: 9. IL-2 detection assay in cells
Activating effect of compounds on IL-2 secretion by T cells was evaluated using the ELISA method. Frozen PBMCs were thawed, and pan-T cells were isolated and purified using a T cell sorting kit (Stemcell, 17951). The cells were resuspended in 1640 complete medium and incubated in a 37°C&5%CO2 incubator overnight. A 96-well plate coated with an anti-human CD3 antibody (Thermo, 16-0037-38) at a final concentration of 5 µg/mL was incubated at 37°C for 2 h. The overnight-cultured cells were collected by centrifugation, the supernatant was discarded, and the cells were resuspended in 1640 complete medium, and seeded in the CD3 antibody-coated 96-well plate at a density of 10^5cells/well. The compounds at different concentrations were added, and the mixture was incubated in a 37°C&5%CO2 incubator for 24 hours. After the incubation was completed, the resulting mixture was centrifuged at 1000 rpm for 1 minute to collect the supernatant, and IL-2 was detected according to the ELISA instructions. DMSO without compounds was used as the control group to calculate the activation rate of the compounds, and prism was used to fit the activation curve. Maximum activation fold = maximum activation rate/control group. Table 9-1 Results of IL-2 activation by test compounds

[2] = Pharmacokinetic test in rats; assay type: in vivo, SD rats; conditions: rat, plasma
Experimental: Test example 7: Pharmacokinetic test in rats
Experimental animals: Male SD rats, 180-200 g, purchased from Chengdu Dossy Experimental Animals Co., Ltd. with the laboratory animal production license number of SCXK (CHUAN) 2020-030.
Experimental design: on the day of the experiment, the SD rats were randomly grouped according to their body weights. The animals were fasted but with water available overnight before the administration, and fed 4 h after the administration.
Vehicle for intragastric administration: 5% Solutol+5% TPGS+30% PEG400+60% (20% SBE-β-CD)
Blood was taken from the orbits of the […] at specified time points, and placed in an EDTAK2 centrifuge tube. Centrifugation was performed at 5000 rpm for 10 min, and the plasma was collected.
Blood sampling time points for the intravenous administration group were: 0, 5 min, 15 min, 30 min, 1 h, 2 h, 4 h, 6 h, 8 h and 24 h; blood sampling time points for the intragastric administration group were: 0, 5 min, 15 min, 30 min, 1 h, 2 h, 4 h, 6 h, 8 h and 24 h. Before analysis and detection, all the samples were stored at - 60°C or lower. The samples were analysed quantitatively by LC-MS/MS. Table 7-1 PK data of test compound drug in rats

[3] = Pharmacokinetic test in mice; assay type: in vivo, ICR mice; conditions: mouse, plasma
Experimental: Test example 6: Pharmacokinetic test in mice
Experimental objective: In this experiment, a single dose of test substances was administered to ICR mice intravenously and intragastrically, the concentrations of the test compounds in plasma of mice were measured, and the pharmacokinetic characteristics and bioavailability of the test compounds in mice were evaluated.
Experimental animals: Male ICR mice, 20-35 g, purchased from Chengdu Dossy Experimental Animals Co., Ltd. (SCXK (CHUAN) 2020-030).
Experimental method: On the day of the experiment, the ICR mice were randomly grouped according to their body weights. The animals were fasted but with water available overnight before the administration, and fed 4 h after the administration.
Sampling: Blood was taken from the orbits of the mice at specified time points, and placed in an EDTAK2 centrifuge tube. Centrifugation was performed at 5000 rpm at 4°C for 10 min, and the plasma was collected.
Time points for plasma collection in G1 and G1-2 groups: 0, 5 min, 15 min, 30 min, 1 h, 2 h, 4 h, 7 h, and 24 h.
Time points for plasma collection in G2 and G2-2 groups: 0, 5 min, 15 min, 30 min, 1 h, 2 h, 4 h, 7 h, and 24 h.
Before analysis and detection, all the samples were stored at -60°C or lower. The samples were analysed quantitatively by LC-MS/MS. Table 6-1 PK data of test compound drug in mice

HPK1 protein = target: T2, HPK1 protein (Homo sapiens, UniProt Q92918); assay: Detection of HPK1 protein expression level in Jurkat cells (24 h); assay type: cell-based; conditions: 24 hours incubation
T2 construct: host or cells: Jurkat cells
Experimental: Test example 4: Detection of HPK1 protein expression level in Jurkat cells (24 h)
Jurkat cells from ATCC were placed in a RPMI-1640 complete medium (supplemented with 10% FBS and 1% penicillin-streptomycin solution) and cultured at 37°C and 5% CO2. The cells in the logarithmic growth phase were collected, the cell density was adjusted to 5 × 10^5 cells/well with the culture medium, and the cells were added to a 6-well cell culture plate at a volume of 1 mL/well. The compound to be tested was prepared to 2-fold the final concentration, 1 mL of the compounds at different concentrations were added to administration wells, a medium containing 0.2% DMSO was added to control wells, and the plate was incubated at 37°C and 5% CO2 for 24 hours. The cells were collected into a 1.5 mL centrifuge tube, 30 µL of RIPA lysis buffer (containing 1X protease inhibitor cocktail) was added, and the cells were lysed on ice for 15 minutes and centrifuged at 12000 rpm/min at 4°C for 10 minutes. The supernatant was collected and the protein content was determined using the BCA method. The protein sample to be tested was diluted to 0.2 mg/mL, HPK1 was detected using a fully automated protein expression quantitative analyser (ProteinSimple), and the internal reference protein was β-actin (all antibodies were from CST). The software (Compass for SW) of the fully automated protein expression quantitative analyser was used to process the raw data and calculate the peak area after internal reference normalisation and the HPK1 degradation rate relative to the control group. The HPK1 degradation rate was calculated according to formula 4-1, where Aadministration well is the relative peak area of the administration group after internal reference normalisation, and Acontrol well is the relative peak area of the vehicle control group after internal reference normalisation. DC50 values were calculated using a four-parameter non-linear fitting model in Graphpad 8.3.0 software. HPK1_degradation % = 100−(Aadministration well/Acontrol well×100%) [formula] Table 4-1 Degradation activity of test compounds against HPK1 protein in Jurkat cells (24 h)

[4] = ATP working concentration: 1 mM

T2 sequence (Q92918 whole entry): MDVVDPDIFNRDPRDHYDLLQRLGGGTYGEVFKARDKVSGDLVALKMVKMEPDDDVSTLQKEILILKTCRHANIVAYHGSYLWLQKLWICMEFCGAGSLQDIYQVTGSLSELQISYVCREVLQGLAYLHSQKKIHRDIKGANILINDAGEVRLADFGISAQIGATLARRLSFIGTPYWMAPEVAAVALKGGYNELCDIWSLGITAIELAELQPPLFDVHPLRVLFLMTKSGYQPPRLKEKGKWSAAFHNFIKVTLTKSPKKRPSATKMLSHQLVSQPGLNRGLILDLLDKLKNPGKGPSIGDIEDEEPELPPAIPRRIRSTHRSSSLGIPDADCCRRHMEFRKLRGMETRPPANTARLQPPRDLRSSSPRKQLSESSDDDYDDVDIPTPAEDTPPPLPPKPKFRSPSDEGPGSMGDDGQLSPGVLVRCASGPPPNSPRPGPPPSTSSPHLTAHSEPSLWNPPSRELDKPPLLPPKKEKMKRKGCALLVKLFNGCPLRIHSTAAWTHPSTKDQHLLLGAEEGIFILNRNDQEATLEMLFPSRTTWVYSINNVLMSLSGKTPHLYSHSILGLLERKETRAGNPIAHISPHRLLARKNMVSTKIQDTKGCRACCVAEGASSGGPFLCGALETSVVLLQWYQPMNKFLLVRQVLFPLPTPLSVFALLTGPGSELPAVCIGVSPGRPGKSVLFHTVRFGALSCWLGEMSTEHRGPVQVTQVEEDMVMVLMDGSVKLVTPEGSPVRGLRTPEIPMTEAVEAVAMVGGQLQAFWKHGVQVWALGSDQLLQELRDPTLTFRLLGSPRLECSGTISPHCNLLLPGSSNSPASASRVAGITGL

## O=C1CCC(c2ccc(N3CCN(CC4CCN(c5ccc(Nc6ccc(-c7cnc8cc(F)ccn78)c7c6C(=O)NC7)nc5)CC4)CC3)cc2F)C(=O)N1 (single isomer, unassigned) [Compound 1-1]
HPK1 kinase; ATP working concentration: 1 mM, read-out: IC50
  IC50: < 50 nM
[1]
  Activation fold at 100 nM concentration: >10

## CN(C)Cc1nc(Nc2ccc(-c3cnc4cc(F)ccn34)c3c2C(=O)NC3)ccc1[C@@H]1CCOC1 [Control compound 1, reference compound]
[1]
  Activation fold at 100 nM concentration: <10
  Maximum activation fold: <10
[2]; IV, 2.5 mg/kg
  clearance: 233 mL/min/kg
  half-life: 0.986 h
[2]; po, i. g., 10 mg/kg
  AUC: 61.1 ng·h/mL
  Cmax: 14.6 ng/mL
  half-life: 1.71 h
[3]; IV, 2.5 mg/kg
  clearance: 169 mL/min/kg
  half-life: 0.89 h
[3]; po, i. g., 10 mg/kg
  AUC: 248 ng·h/mL
  Cmax: 93.8 ng/mL
  half-life: 2.05 h

## O=C1CC[C@H](NC(=O)c2cc3c(cc2F)N2CCN(CC4CCN(c5ccc(Nc6ccc(-c7cnc8cc(F)ccn78)c7c6C(=O)NC7)nc5)CC4)C[C@@H]2CC3)C(=O)N1 [Trifluoroacetic acid salt of compound 7]
HPK1 kinase; [4]
  IC50: < 50 nM
[1]
  Activation fold at 100 nM concentration: >10
  Maximum activation fold: >10
HPK1 protein
  DC50: < 20 nM

## O=C1CC[C@H](NC(=O)c2cc3c(cc2F)N2CCN(CC4CCN(c5ccc(Nc6ccc(-c7cnc8cc(F)ccn78)c7c6C(=O)NC7)nc5)CC4)C[C@H]2CC3)C(=O)N1 [Trifluoroacetic acid salt of compound 8]
HPK1 kinase; [4]
  IC50: < 50 nM
HPK1 protein
  DC50: < 20 nM
[3]; po, i. g., 10 mg/kg
  AUC: 18300 ng·h/mL
  Cmax: 1460 ng/mL
  half-life: 4.38 h

## O=C1CCN(c2cc3c(cc2F)N2CCN(C4CCN(c5ccc(Nc6ccc(-c7cnc8cc(F)ccn78)c7c6C(=O)NC7)nc5)CC4)C[C@@H]2CC3)C(=O)N1 [Trifluoroacetic acid salt of compound 13]
HPK1 kinase
  IC50: < 50 nM
HPK1 protein
  DC50: < 20 nM

## O=C1CCN(c2cc3c(cc2F)N2CCN(C4CCN(c5ccc(Nc6ccc(-c7cnc8cc(F)ccn78)c7c6C(=O)NC7)nc5)CC4)C[C@H]2CC3)C(=O)N1 [Trifluoroacetic acid salt of compound 14]
HPK1 kinase
  IC50: < 50 nM
HPK1 protein
  DC50: < 20 nM

## O=C1CCN(c2cc3c(cc2F)N2CCN(CC4CC5(CCN(c6ccc(Nc7ccc(-c8cnc9cc(F)ccn89)c8c7C(=O)NC8)nc6)CC5)C4)C[C@@H]2CC3)C(=O)N1 [Trifluoroacetic acid salt of compound 15]
HPK1 kinase; [4]
  IC50: < 50 nM
HPK1 protein
  DC50: < 20 nM
[3]; po, i. g., 10 mg/kg
  AUC: 23600 ng·h/mL
  Cmax: 1620 ng/mL
  half-life: 7.64 h

## O=C1CCN(c2cc3c(cc2F)N2CCN(C4CC5(CCN(c6ccc(Nc7ccc(-c8cnc9cc(F)ccn89)c8c7C(=O)NC8)nc6)CC5)C4)C[C@@H]2CC3)C(=O)N1 [Trifluoroacetic acid salt of compound 20]
HPK1 kinase
  IC50: < 50 nM
[2]; IV, 2.5 mg/kg
  clearance: 13.4 mL/min/kg
  half-life: 4.78 h
[2]; po, i. g., 10 mg/kg
  AUC: 5310 ng·h/mL
  Cmax: 382 ng/mL
  half-life: 5.29 h
HPK1 protein
  DC50: < 20 nM
[3]; po, i. g., 10 mg/kg
  AUC: 12600 ng·h/mL
  Cmax: 1010 ng/mL
  half-life: 5.51 h

## O=C1CC[C@H](NC(=O)c2cc3c(cc2F)N2CCN(CC4CC5(CCN(c6ccc(Nc7ccc(-c8cnc9cc(F)ccn89)c8c7C(=O)NC8)nc6)CC5)C4)C[C@@H]2CC3)C(=O)N1 [Trifluoroacetic acid salt of compound 34]
HPK1 kinase; [4]
  IC50: < 50 nM
HPK1 protein
  DC50: < 20 nM

## O=C1CC[C@H](NC(=O)c2cc3c(cc2F)N2CCN(CC4CC5(CCN(c6ccc(Nc7ccc(-c8cnc9cc(F)ccn89)c8c7C(=O)NC8)nc6)CC5)C4)C[C@H]2CC3)C(=O)N1 [Trifluoroacetic acid salt of compound 36]
HPK1 kinase; [4]
  IC50: < 50 nM
HPK1 protein
  DC50: < 20 nM

## O=C1CC[C@H](NC(=O)c2cc3c(cc2F)N2CCN(C4CC5(CCN(c6ccc(Nc7ccc(-c8cnc9cc(F)ccn89)c8c7C(=O)NC8)nc6)CC5)C4)C[C@H]2CC3)C(=O)N1 [Trifluoroacetic acid salt of compound 37]
HPK1 kinase; [4]
  IC50: < 50 nM
HPK1 protein
  DC50: < 20 nM

## O=C1CC[C@H](NC(=O)c2cc3c(cc2F)N2CCN(C4CCN(c5ccc(Nc6ccc(-c7cnc8cc(F)ccn78)c7c6C(=O)NC7)nc5)CC4)C[C@H]2CC3)C(=O)N1 [Trifluoroacetic acid salt of compound 42]
HPK1 kinase
  IC50: < 50 nM
HPK1 protein
  DC50: < 20 nM
